Reference: paper PMC11593623, “D299T Mutation in CYP76F14 Led to a Decrease in Wine Bouquet Precursor Production in Wine Grape” (Genes, 2024)

Molecular target: T1, 'L35' VvCYP76F14 (Vitis vinifera, UniProt A0A1B2ZBX8, S46N/I107T/K111N/Q175R/V222L/N286S/T325K/G378E/A380T/D383E/A386T)
T1 construct: 499-residue CDS, synthesized (GenScript), E. coli BL21(DE3); purification and tags not described; Arabidopsis CPR ATR1 as redox partner
Test: substrate remnant by UPLC-MS
Assay type: cell-based
Settings: Arabidopsis CPR ATR1 as redox partner; 26 °C, 1 h; recombinant E. coli protein, purification not described

T1 sequence (A0A1B2ZBX8 entry or part of it with the stated changes): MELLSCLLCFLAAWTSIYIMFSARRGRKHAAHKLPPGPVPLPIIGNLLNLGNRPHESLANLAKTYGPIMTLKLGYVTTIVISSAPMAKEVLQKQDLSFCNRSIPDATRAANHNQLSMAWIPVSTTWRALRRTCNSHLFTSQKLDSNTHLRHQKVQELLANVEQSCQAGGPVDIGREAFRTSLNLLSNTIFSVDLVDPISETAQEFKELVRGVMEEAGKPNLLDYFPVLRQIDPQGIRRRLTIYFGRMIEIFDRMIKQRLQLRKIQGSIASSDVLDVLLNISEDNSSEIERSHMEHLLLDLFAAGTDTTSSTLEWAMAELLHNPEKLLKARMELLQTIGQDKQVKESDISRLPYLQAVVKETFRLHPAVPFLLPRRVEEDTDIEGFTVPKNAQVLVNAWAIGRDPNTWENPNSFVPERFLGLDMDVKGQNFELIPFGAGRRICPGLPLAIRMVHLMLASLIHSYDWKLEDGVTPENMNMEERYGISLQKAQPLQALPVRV

| SMILES | substrate remnant by UPLC-MS |
| --- | --- |
| C=CC(C)(O)CC/C=C(\C)CO (centres unmarked) [(E)-8-hydroxylinalool] | ‘L35’ VvCYP76F14 exhibited lower remnants of linalool and (E)-8-hydroxylinalool substrates |
| C=CC(C)(O)CCC=C(C)C (centres unmarked) [linalool] | ‘L35’ VvCYP76F14 exhibited lower remnants of linalool and (E)-8-hydroxylinalool substrates |
